The source of these data is patent publication US6638919B2, “Antiviral purine derivatives” (University College Cardiff Consultants Limited, priority 2001, dated 2003).

What all share (type): cell-based
Data set [1] in a line: Toxicity to mock-infected CEM cells (CC50). The conditions noted are these: human. Here is the method: (§1) Then 100 μL of the infected cell suspension was transferred to microtiter plate wells and mixed with 100 μL of the appropriate dilutions of the test compounds.
(§2) CC50 CEM: CC50 in μM for toxicity to CEM cells.
(§3) CC50 CEM: CC50 μM for toxicity to CEM cells

For the next data set, the system named is HIV-1. The data set is described as follows: Inhibition of HIV-1 giant cell formation in CEM cells. Here is the method:
as §1
HIV 1 CEM: EC50 in μM for inhibition of HIV1 in CEM cells

For the next data set, the system named is HIV-2. The data set is described as follows: Inhibition of HIV-2 giant cell formation in CEM cells. As to the method:
as §1
HIV1 CEM: EC50 in μM for inhibition of […] in CEM cells.
HIV2 CEM: EC50 in μM for inhibition of HIV-2 in CEM cells

Data set [2] deals with MSV. In words: Inhibition of MSV. Conditions: read-out: EC50 MSV. Here is the method:
EC50 MSV: EC50 μM for inhibition of MSV

For data set [3], the system named is MSV. In words: Minimum cytotoxic concentration in MSV assay. Also noted: unit not given here. The conditions noted are these: Table III. The source says: MCC MSV: minimum cytotoxic concentration in MSV essay.
The test system of another data set is CEM cells. In words: Toxicity to mock-infected CEM cells (CC50). The conditions noted are these: Table III; toxicity to CEM cells; read-out: CC50 CEN. As to the method:
as §1, §2, §3

Setting [4] is: mock-infected CEM cells, Tables I and II, read-out: CC50/μM CEM.
Setting [5] is: Human immunodeficiency virus 1, CCRF-CEM, 96 h, CEM cells, giant cell formation after 4 days, Tables I and II, read-out: EC50/μM HIV-1 CEM.
[6] abbreviates: Human immunodeficiency virus 2, CCRF-CEM, 96 h, CEM cells, giant cell formation after 4 days, Tables I and II, read-out: EC50/μM HIV-2 CEM.
Where [7] appears, read: Table III, EC50 for inhibition of HIV1 in CEM cells, read-out: HIV1 CBM.
The mark [8] stands for this setting: Table III, EC50 for inhibition of HIV-2 in CEM cells, read-out: HIV2 CBM.
[9] abbreviates: Table III, toxicity to CEM cells, read-out: CC50 CEN.
The mark [10] stands for this setting: Human immunodeficiency virus 1, CCRF-CEM, Table III, EC50 for inhibition of HIV1 in CEM cells, read-out: HIV1 CBM.
Where [11] appears, read: Human immunodeficiency virus 2, CCRF-CEM, Table III, EC50 for inhibition of HIV-2 in CEM cells, read-out: HIV2 CBM.

Where two headings read alike, the source gives them in different places. Where only a bound is given, the exact number is not on record here.

With `Nc1nc2c(ncn2[C@H]2C=C[C@@H](CO)C2)c(=O)[nH]1` [(1R, 4S)-9-{4-(hydroxymethyl)-2-cyclopenten-1-yl]guanine, reference compound], the CC50 at 4 days in data set [1] (setting [4]) was determined as 157 µM. Besides, the EC50 stood at 2 µM in the data set with HIV-1 (setting [5]) and 2.3 µM in the data set on HIV-2 (setting [6]).

With `Nc1nc(NC2CC2)c2ncn([C@H]3C=C[C@@H](CO)C3)c2n1` [Abacavir, (1S,4R)-4-[2-anino-6-(cyclopropylamino)-9H-purin-9-yl]-2-cyclopentene-1-methanol, reference compound], the CC50 at 4 days in data set [1] (setting [4]) was determined as 78 µM. The EC50 is 1.9 µM in the data set on HIV-1 (setting [5]) and 3 µM in the data set with HIV-2 (setting [6]).

As for `CC(C)OC(=O)[C@H](C)NP(=O)(OC[C@@H]1C=C[C@H](n2cnc3c(NC4CC4)nc(N)nc32)C1)Oc1ccccc1` (stereo partly drawn) [Compound 1661, (1S,4R)-4-(2-amino-6-cyclopropylamino-9H-purin-9-yl)-2-cyclopentene-1-methanol O-Phenyl-(i-propoxy-L-alaninyl)-phosphate], the EC50 in the data set on MSV [2] (Table III, inhibition of MSV) stood at 2.75 µM; in the data set on HIV-1 (setting [7]), 0.5 µM; in the data set with HIV-2 (setting [8]), 0.85 µM. For the same compound, in the data set on MSV [3], the MCCMSV result is given as “≧20”. Moreover, in the data set on CEM cells, the CC50 was determined as 9.18 µM.

As for `CC(C)COC(=O)[C@H](C)NP(=O)(OC[C@@H]1C=C[C@H](n2cnc3c(NC4CC4)nc(N)nc32)C1)Oc1ccccc1` (stereo partly drawn) [Compound 1672, (1S,4R)-4-(2-:amino-6-cyclopropylamino-9H-purin-9-yl-2-cyclopentene-1-methanol O-(phenyl (2-methylpropyl)oxyalaninyl phosphate)], the EC50 is 1.98 µM with MSV [2] (Table III, inhibition of MSV); 0.09 µM with HIV-1 (setting [7]); 0.1 µM with HIV-2 (setting [8]). The compound also came in with an MCCMSV with MSV [3] above 4. The CC50 in the data set on CEM cells was 14.4 µM.

Turning to `C[C@H](NP(=O)(OC[C@@H]1C=C[C@H](n2cnc3c(NC4CC4)nc(N)nc32)C1)Oc1ccccc1)C(=O)OCC(C)(C)C` (stereo partly drawn) [Compound 1673, (1S ,4R)-442-amino6-cyclopropylamino-9H-purin-9-y)-2-cyclopentene-1-methanol O-(phenyl (2,2-dimethylpropyl)oxyalaninyl phosphate)], the EC50 came to 2.92 µM with MSV [2] (Table III, inhibition of MSV); 0.15 µM in the data set with HIV-1 (setting [7]); 0.18 µM in the data set with HIV-2 (setting [8]). Further, the MCCMSV in the data set with MSV [3] was above 4. Besides, in the data set with CEM cells, the CC50 came to 8.07 µM.

As to `CCCCCOC(=O)[C@H](C)NP(=O)(OC[C@@H]1C=C[C@H](n2cnc3c(NC4CC4)nc(N)nc32)C1)Oc1ccccc1` (stereo partly drawn) [Compound 1706, (1S,4R)-4-(2-amino-6-cyclopropylamino-9H-purin-9-yl)-2-cyclopentene-1-methanol 0-Phenyl-(n-pentyloxy-L-alaninyl)-phosphate], the EC50 with MSV [2] (Table III, inhibition of MSV) stood at 1.45 µM; in the data set on HIV-1 (setting [7]), 0.065 µM; with HIV-2 (setting [8]), 0.08 µM. The compound also had an MCCMSV in the data set on MSV [3] above 4. Also, in the data set with CEM cells, the CC50 was determined as 16.4 µM.

With `C[C@H](NP(=O)(OC[C@@H]1C=C[C@H](n2cnc3c(NC4CC4)nc(N)nc32)C1)Oc1ccccc1)C(=O)OC1CCCCC1` (stereo partly drawn) [Compound 1707, (1S,4R)-4-(2-amino-6-cyclopropylamino-9H-purin-9-yl)-2-cyclopeniene-1-methanol O-Phenyl-(c-hexyloxy-L-alaninyl)-phosphate], the EC50 amounted to 2.84 µM in the data set with MSV [2] (Table III, inhibition of MSV); 0.33 µM with HIV-1 (setting [7]); 0.25 µM in the data set on HIV-2 (setting [8]). This compound returned an MCCMSV in the data set on MSV [3] above 4. Besides, the CC50 with CEM cells was 10.2 µM.

`C[C@H](NP(=O)(OC[C@@H]1C=C[C@H](n2cnc3c(NC4CC4)nc(N)nc32)C1)Oc1ccccc1)C(=O)OCC1CCCCC1` (stereo partly drawn) [Compound 1708, (1S,4R)-4-(2-amino-6-cyclopropylamino-9H-purin-9-yl)-2cyclopentene-1-methanol O-Phenyl-(cyclobexane-methoxy-L-alaninyl)-phosphate]: the EC50 in the data set with MSV [2] (Table III, inhibition of MSV) is 1.3 µM; in the data set with HIV-1 (setting [7]), 0.15 µM; with HIV-2 (setting [8]) it was 0.16 µM. In the data set on MSV [3], this compound showed an MCCMSV above 4. Moreover, in the data set on CEM cells, the CC50 was determined as 15.1 µM.

As to `COC(=O)[C@H](CC1CCCCC1)NP(=O)(OC[C@@H]1C=C[C@H](n2cnc3c(NC4CC4)nc(N)nc32)C1)Oc1ccccc1` (stereo partly drawn) [Compound 1709, (1 S,4R)-4-(2-amino-6-cyclopropylamino-9H-purin-9-yl)-2-cyclopentene-1-methanol O-Phenyl-(methoxy-3-cyclohexane-L-alaninyl)-phosphate], the EC50 in the data set on MSV [2] (Table III, inhibition of MSV) worked out at 1.72 µM; in the data set with HIV-1 (setting [7]) it was 1.2 µM; in the data set on HIV-2 (setting [8]) it was 2 µM. In the data set with MSV [3], this compound had an MCCMSV above 4. The CC50 in the data set with CEM cells is 16 µM.

In the case of `COC(=O)[C@H](C)NP(=O)(OC[C@@H]1C=C[C@H](n2cnc3c(NC4CC4)nc(N)nc32)C1)Oc1ccc(Br)cc1` (stereo partly drawn) [Compound 1710, (1S,4R)-4-(2-amino-6-cyclopropylamino-9H-purin-9-yl)-2-cyclopentene-1-methanol O-[4-bromophenyl-(methoxy-L-alaninyl)]-phosphate], the EC50 in the data set with MSV [2] (Table III, inhibition of MSV) was 0.51 µM; with HIV-1 (setting [7]), 0.0055 µM; with HIV-2 (setting [8]), 0.049 µM. The same compound yielded an MCCMSV in the data set on MSV [3] above 0.8. For the same compound, in the data set on CEM cells, the CC50 came to 5.78 µM.

`CCOC(=O)C[C@H](NP(=O)(OC[C@@H]1C=C[C@H](n2cnc3c(NC4CC4)nc(N)nc32)C1)Oc1ccccc1)C(=O)OCC` (stereo partly drawn) [Compound 1714, (1S,4R)-4-(2-amino-6-cyclopropylamino-9H-purin-9-yl)-2-cyclopeutene-1-methanol O-(phenyldiethoxy-L-aspartyl phosphate)]: the EC50 with MSV [2] (Table III, inhibition of MSV) stood at 7.18 µM; in the data set on HIV-1 (setting [7]), 0.55 µM; with HIV-2 (setting [8]), 2.1 µM. This compound also had an MCCMSV in the data set with MSV [3] above 20. Moreover, the CC50 in the data set with CEM cells came to 23.1 µM.

Take `COC(=O)[C@H](CCSC)NP(=O)(OC[C@@H]1C=C[C@H](n2cnc3c(NC4CC4)nc(N)nc32)C1)Oc1ccccc1` (stereo partly drawn) [Compound 1715, (1S,4R)-4-(2-amino-6-cyclopropylamino-9H-purin-9-yl)-2-cyclopentene-1-methanol O-(phenylmethoxy-L-methionyl phosphate)]: the EC50 came out at 10.2 µM in the data set on MSV [2] (Table III, inhibition of MSV); 1.15 µM in the data set on HIV-1 (setting [7]); 2.73 µM in the data set on HIV-2 (setting [8]). Further, the MCCMSV in the data set with MSV [3] is on record as above 20. Besides, the CC50 with CEM cells came out at 48.9 µM.

In the case of `COC(=O)C(CC(C)C)NP(=O)(OC[C@@H]1C=CC(n2cnc3c(NC4CC4)nc(N)nc32)C1)Oc1ccccc1` (stereo partly shown) [Compound 1718], the EC50 in the data set on MSV [2] (Table III, inhibition of MSV) came out at 8.84 µM; with HIV-1 (setting [10]) it was 0.85 µM; in the data set with HIV-2 (setting [11]) it was 1.48 µM. In addition, the MCCMSV with MSV [3] is recorded as above 20. Further, the CC50 in data set [1] (setting [9]) worked out at 22 µM.

As for `COC(=O)[C@@H]1CCCN1P(=O)(OC[C@@H]1C=CC(n2cnc3c(NC4CC4)nc(N)nc32)C1)Oc1ccccc1` (stereo partly shown) [Compound 1719], the EC50 in the data set on MSV [2] turned out to be 11.6 µM; in the data set with HIV-1 (Human immunodeficiency virus 1, CCRF-CEM, read-out: HIV1 CBM) it was 4 µM; with HIV-2 (Human immunodeficiency virus 2, CCRF-CEM, read-out: HIV2 CBM) it was 5.5 µM. Moreover, the MCCMSV result in the data set with MSV [3] is “≧100”. For the same compound, the CC50 at 4 days in data set [1] (setting [9]) came out at 19.4 µM.

For the compound `CC(C)CCCOC(=O)[C@H](C)NP(=O)(OC[C@@H]1C=CC(n2cnc3c(NC4CC4)nc(N)nc32)C1)Oc1ccccc1` (stereo partly drawn) [Compound 1721, (1S,4R)-4-(2-amino-6-cyclopropylamino-9H-purin-9-y))-2-cyclopentene-1-methanol O-[phenyl (4-methyl-1-pentyloxy-L-alaninyl)phosphate], the EC50 came to 2.2 µM with MSV [2] (Table III, inhibition of MSV); 0.05 µM in the data set on HIV-1 (setting [10]); 0.14 µM in the data set on HIV-2 (setting [11]). The compound further yielded an MCCMSV with MSV [3] above 4. In addition, the CC50 in data set [1] (setting [9]) was found to be 12.5 µM.

Turning to `C[C@H](NP(=O)(OC[C@@H]1C=CC(n2cnc3c(NC4CC4)nc(N)nc32)C1)Oc1ccccc1)C(=O)OCC1CCCC1` (stereo partly shown) [Compound 1722], the CC50 in data set [1] (setting [9]) came to 15.2 µM. Besides, the EC50 turned out to be 0.13 µM in the data set with HIV-1 (setting [10]) and 0.48 µM with HIV-2 (setting [11]).

In the case of “(1S,4R)-4-(2-amino6cyclopropyl-2 -amino-9H-purin-9-yl)-2-cyclopentene-1-methanol O-((P-(2 2-dimethoxy-L-propionic acid methyl ester)-phenyl)methoxyalaninyl phosphate) [Compound 1671]”, the EC50 with MSV [2] (Table III, inhibition of MSV) stood at 9.2 µM; in the data set with HIV-1 (setting [7]) it was 0.1 µM; in the data set with HIV-2 (setting [8]), 0.12 µM. In addition, in the data set on MSV [3], the MCCMSV was above 20. In addition, in the data set with CEM cells, the CC50 is 12.1 µM.
